Measured values from paper PMC3426641 (Biochemistry, 2012).
Like-named read-outs stand apart in the source and are kept apart here.

Tests used:
Eis_Msm [1] = target: T1, Eis_Msm (Mycobacterium smegmatis, UniProt A0QY29)
Eis_Msm [2] = target: T1, Eis_Msm; experiment: Number of acetylations of AGs by Eis_Msm; type: biochemical; conditions: number of acetylations per AG; UV-Vis assay and LCMS, 25 °C, pH 8.0
Eis_Msm [3] = target: T1, Eis_Msm; experiment: biochemical
Eis_Mtb [4] = target: T2, Eis_Mtb (Mycobacterium tuberculosis, UniProt P9WFK7); experiment: biochemical
T2 sequence (P9WFK7 whole entry): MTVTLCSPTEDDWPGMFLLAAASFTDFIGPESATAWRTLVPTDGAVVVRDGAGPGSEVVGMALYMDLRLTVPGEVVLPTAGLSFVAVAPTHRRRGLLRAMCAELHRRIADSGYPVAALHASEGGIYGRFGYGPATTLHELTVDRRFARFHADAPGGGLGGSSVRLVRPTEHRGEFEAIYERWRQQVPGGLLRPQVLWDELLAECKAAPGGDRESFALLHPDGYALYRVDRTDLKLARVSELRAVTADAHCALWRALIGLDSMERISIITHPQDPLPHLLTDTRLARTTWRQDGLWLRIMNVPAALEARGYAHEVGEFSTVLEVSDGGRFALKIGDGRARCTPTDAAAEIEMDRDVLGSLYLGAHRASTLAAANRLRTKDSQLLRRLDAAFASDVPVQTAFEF

Eis_Mtb [5] = target: T2, Eis_Mtb
Eis_Msm [6] = target: T1, Eis_Msm; experiment: Inhibition of Eis_Msm NEO acetylation; type: biochemical; conditions: for mode of inhibition: Eis_Msm, against NEO
Eis_Mtb [7] = target: T2, Eis_Mtb; experiment: Inhibition of Eis_Mtb NEO acetylation; type: biochemical
[8] = test system: NC[C@H]1O[C@H](O[C@H]2[C@H](O)[C@@H](O)[C@H](N)C[C@@H]2N)[C@H](N)[C@@H](O)[C@@H]1O; experiment: purified protein, by the assay type; conditions: pH 8.0
[9] = test system: NC[C@@H]1O[C@H](O[C@H]2[C@@H](O)[C@H](O[C@@H]3[C@@H](O)[C@H](N)C[C@H](N)[C@H]3O[C@H]3O[C@H](CO)[C@@H](O)[C@H](O)[C@H]3N)O[C@@H]2CO)[C@H](N)[C@@H](O)[C@@H]1O; experiment: purified protein, by the assay type; conditions: other: Eis_Msm, fixed AcCoA 0.1 mM, varying AG, 25 °C, pH 8.0
[10] = test system: CN[C@@H]1[C@@H](O)[C@@H](O[C@@H]2[C@@H](O)[C@H](O[C@H]3OC(CN)=CC[C@H]3N)[C@@H](N)C[C@H]2N)OC[C@]1(C)O; experiment: purified protein, by the assay type; conditions: other: Eis_Msm, pH 8.0
[11] = test system: NCC[C@H](O)C(=O)N[C@@H]1C[C@H](N)[C@@H](O[C@H]2O[C@H](CN)[C@@H](O)[C@H](O)[C@H]2O)[C@H](O)[C@H]1O[C@H]1O[C@H](CO)[C@@H](O)[C@H](N)[C@H]1O; experiment: purified protein, by the assay type; conditions: pH 8.0
[12] = test system: NC[C@H]1O[C@H](O[C@H]2[C@H](O)[C@@H](O[C@H]3O[C@H](CO)[C@@H](O)[C@H](N)[C@H]3O)[C@H](N)C[C@@H]2N)[C@H](N)C[C@@H]1O; experiment: purified protein, by the assay type; conditions: pH 8.0
[13] = test system: CCN[C@@H]1C[C@H](N)[C@@H](O[C@H]2OC(CN)=CC[C@H]2N)[C@H](O)[C@H]1O[C@H]1OC[C@](C)(O)[C@H](NC)[C@H]1O; experiment: purified protein, by the assay type; conditions: other: Eis_Msm, pH 8.0
[14] = test system: NC[C@@H]1O[C@H](O[C@H]2[C@@H](O)[C@H](O[C@@H]3[C@@H](O)[C@H](N)C[C@H](N)[C@H]3O[C@H]3O[C@H](CN)[C@@H](O)[C@H](O)[C@H]3N)O[C@@H]2CO)[C@H](N)[C@@H](O)[C@@H]1O; experiment: purified protein, by the assay type; conditions: other: Eis_Msm, pH 8.0
[15] = Eis_Msm, fixed AG 0.5 mM, varying AcCoA, 25 °C, pH 8.0
[16] = other: Eis_Msm, fixed AcCoA 0.1 mM, varying AG, 25 °C
[17] = fixed AcCoA 0.1 mM, varying AG, 25 °C
[18] = random sequential mechanism, 25.0 °C

## NCC[C@H](O)C(=O)N[C@@H]1C[C@H](N)[C@@H](O[C@H]2O[C@H](CN)[C@@H](O)[C@H](O)[C@H]2O)[C@H](O)[C@H]1O[C@H]1O[C@H](CO)[C@@H](O)[C@H](N)[C@H]1O [AMK, amikacin]
Eis_Msm [1]; [15]
  kcat,AcCoA: 0.142 ± 0.026 s⁻¹
Eis_Msm [2]
  level of acetylation by Eis from M. smegmatis: tri-acetylated
Eis_Msm [3]
  Kd: > 1000 µM
Eis_Mtb [4]
  Kd: 32 ± 14 µM

## CN[C@@H]1[C@@H](O[C@H]2O[C@H](CO)[C@@H](N)[C@H](O)[C@H]2O)OC2C[C@@H](N)[C@@H](O[C@H]3[C@H](O)[C@@H](O)[C@H](N)C[C@@H]3N)OC2[C@@H]1O (stereo partly shown) [APR, apramycin]
Eis_Msm [2]
  level of acetylation by Eis from M. smegmatis: di-acetylated

## CC(=O)SCCNC(=O)CCNC(=O)[C@H](O)C(C)(C)COP(=O)(O)OP(=O)(O)OC[C@H]1O[C@@H](n2cnc3c(N)ncnc32)[C@H](O)[C@@H]1OP(=O)(O)O [AcCoA, acetyl-coenzyme A]
Eis_Msm [1]; Eis_Msm, AG = KAN
  Kd,AcCoA(E) fold smaller than Kd,AcCoA(E•AG): approximately 17 fold

## CN[C@@H]1C[C@H](N)[C@@H](O)[C@H](O[C@H]2O[C@H](CO)[C@H](O)[C@@H]3O[C@@]4(O[C@@H]23)O[C@H]([C@H](N)CO)[C@H](O)[C@H](O)[C@H]4O)[C@H]1O [HYG, hygromycin]
Eis_Msm [2]
  level of acetylation by Eis from M. smegmatis: mono-acetylated

## NC[C@H]1O[C@H](O[C@H]2[C@H](O)[C@@H](O)[C@H](N)C[C@@H]2N)[C@H](N)[C@@H](O)[C@@H]1O [NEA, neamine]
Eis_Msm [2]
  level of acetylation by Eis from M. smegmatis: tri-acetylated
Eis_Msm [3]
  Kd: 141 ± 60 µM
Eis_Mtb [4]
  Kd: 95 ± 50 µM

## NC[C@@H]1O[C@H](O[C@H]2[C@@H](O)[C@H](O[C@@H]3[C@@H](O)[C@H](N)C[C@H](N)[C@H]3O[C@H]3O[C@H](CN)[C@@H](O)[C@H](O)[C@H]3N)O[C@@H]2CO)[C@H](N)[C@@H](O)[C@@H]1O [NEO, neomycin B]
Eis_Msm [1]; 25 °C, pH 8.0
  kcat,AcCoA: 0.546 ± 0.065 s⁻¹
Eis_Msm [2]
  level of acetylation by Eis from M. smegmatis: tri-acetylated
Eis_Msm [3]
  Kd: > 1000 µM
Eis_Mtb [4]
  Kd: 75 ± 41 µM

## CCN[C@@H]1C[C@H](N)[C@@H](O[C@H]2OC(CN)=CC[C@H]2N)[C@H](O)[C@H]1O[C@H]1OC[C@](C)(O)[C@H](NC)[C@H]1O [NET, netilmicin]
Eis_Msm [1]; [15]
  kcat,AcCoA: 0.819 ± 0.121 s⁻¹
Eis_Msm [2]
  level of acetylation by Eis from M. smegmatis: di-acetylated
Eis_Msm [3]
  Kd: 108 ± 35 µM
Eis_Mtb [4]
  Kd: 31 ± 10 µM

## NC[C@@H]1O[C@H](O[C@H]2[C@@H](O)[C@H](O[C@@H]3[C@@H](O)[C@H](N)C[C@H](N)[C@H]3O[C@H]3O[C@H](CO)[C@@H](O)[C@H](O)[C@H]3N)O[C@@H]2CO)[C@H](N)[C@@H](O)[C@@H]1O [PAR, paromomycin]
Eis_Mtb [5]
  kcat,AG: 0.15 ± 0.01 s⁻¹
Eis_Mtb [5]; read-out: Km,AG
  Km: 96 ± 20 µM
Eis_Msm [2]
  level of acetylation by Eis from M. smegmatis: tri-acetylated

## NC[C@H]1O[C@H](O[C@H]2[C@H](O[C@@H]3O[C@H](CO)[C@@H](O)[C@H]3O)[C@@H](O)[C@H](N)C[C@@H]2N)[C@H](N)[C@@H](O)[C@@H]1O [RIB, ribostamycin]
Eis_Msm [2]
  level of acetylation by Eis from M. smegmatis: tri-acetylated

## CN[C@@H]1[C@@H](O)[C@@H](O[C@@H]2[C@@H](O)[C@H](O[C@H]3OC(CN)=CC[C@H]3N)[C@@H](N)C[C@H]2N)OC[C@]1(C)O [SIS, sisomicin]
Eis_Msm [1]; 25 °C, pH 8.0
  kcat,AcCoA: 0.620 ± 0.063 s⁻¹
Eis_Msm [2]
  level of acetylation by Eis from M. smegmatis: tri-acetylated
Eis_Msm [3]
  Kd: 179 ± 54 µM
Eis_Mtb [4]
  Kd: 340 ± 140 µM

## CN[C@@H]1[C@H](O)[C@H](NC)[C@H]2O[C@@]3(O)C(=O)C[C@@H](C)O[C@H]3O[C@@H]2[C@H]1O [SPT, spectinomycin]
Eis_Msm [2]
  level of acetylation by Eis from M. smegmatis: not modified

## [H]/N=C(/N)N[C@H]1[C@H](O)[C@@H](O)[C@H](O[C@@H]2O[C@@H](C)[C@](O)(C=O)[C@H]2O[C@@H]2O[C@@H](CO)[C@H](O)[C@@H](O)[C@@H]2NC)[C@@H](N/C(N)=N\[H])[C@@H]1O [STR, streptomycin]
Eis_Msm [2]
  level of acetylation by Eis from M. smegmatis: not modified

## NC[C@H]1O[C@H](O[C@H]2[C@H](O)[C@@H](O[C@H]3O[C@H](CO)[C@@H](O)[C@H](N)[C@H]3O)[C@H](N)C[C@@H]2N)[C@H](N)C[C@@H]1O [TOB, tobramycin]
Eis_Msm [2]
  level of acetylation by Eis from M. smegmatis: tetra-acetylated

## [H]/N=C(\N/C(=N/[H])NCCCCCCNC(=N)NC(=N)Nc1ccc(Cl)cc1)Nc1ccc(Cl)cc1 [chlorhexidine (1), chlorhexidine]
Eis_Msm [6]
  IC50: 1.85 µM
  Ki: 0.47 ± 0.15 µM
Eis_Msm [6]; listed as 1
  mode of inhibition: AG-competitive mode
Eis_Msm [6]; listed as Chlorhexidine (1)
  mode of inhibition: competitive inhibitor of NEO
Eis_Mtb [7]
  Ki: 0.105 ± 0.024 µM

## Eis_Msm (Mycolicibacterium smegmatis MC2 155)
[8]; [16]
  Km: 359 ± 101 µM
  kcat: 0.176 ± 0.027 s⁻¹
[9]
  Km: 153 ± 55 µM
  kcat: 0.035 ± 0.006 s⁻¹
[10]; [17]
  Km: 82 ± 8 µM
  kcat: 0.206 ± 0.006 s⁻¹
[10]; [18]
  kcat: 0.85 ± 0.25 s⁻¹
[11]; [16]
  Km: 251 ± 55 µM
[11]; other: Eis_Msm, random sequential mechanism, 25.0 °C
  kcat: > 0.3 s⁻¹
[12]; [16]
  Km: 131 ± 22 µM
  kcat: 0.267 ± 0.016 s⁻¹
[13]; [17]
  Km: 197 ± 30 µM
  kcat: 0.835 ± 0.057 s⁻¹
[13]; [18]
  kcat: 1 ± 0.4 s⁻¹
[14]; [17]
  Km: 314 ± 77 µM
[14]; [18]
  kcat: > 1 s⁻¹

## Eis_Mtb (Mycobacterium tuberculosis H37Rv)
[8]; 25.0 °C
  Km: 137 ± 57 µM
  kcat: 0.064 ± 0.01 s⁻¹
[11]; 25.0 °C
  Km: 113 ± 35 µM
  kcat: 0.03 ± 0.004 s⁻¹
[12]; 25.0 °C
  Km: 116 ± 17 µM
  kcat: 0.21 ± 0.01 s⁻¹

## kanamycin A
Eis_Msm [1]; [15]
  kcat,AcCoA: 0.398 ± 0.060 s⁻¹
Eis_Msm [1]; Eis_Msm, fixed AcCoA 0.1 mM, varying AG, 25 °C, pH 8.0
  kcat,AG: 0.108 ± 0.005 s⁻¹
Eis_Mtb [5]
  kcat (microscopic rate constant of acetylation): 0.16 ± 0.07 s⁻¹
  kcat,AcCoA: 0.094 ± 0.004 s⁻¹
Eis_Msm [2]
  level of acetylation by Eis from M. smegmatis: di-acetylated
